Reference: patent publication US20180057447A1, “METHYL MENTHOL DERIVATIVE AND COOLING AGENT COMPOSITION CONTAINING SAME” (TAKASAGO INTERNATIONAL CORPORATION, priority 2015, published 2018)
“Also recorded” adds a separate entry of the source.

Experiments:
[1] = Evaluation of cool feeling intensity (EC50, with reference to NPL 6); assay type: cell-based; details: index of the cool feeling intensity; read-out: EC50 (concentration at which a cool feeling is felt)
Description: The measurement of the cool feeling intensity was performed with reference to NPL 6. A concentration EC50 at which a cool feeling is felt is shown below as the index of the cool feeling intensity.

[2] = Sensory evaluation of aqueous solutions against comparative compounds; assay type: in vivo; details: for cool feeling characteristic: rac-14a-38 vs Comparative Compound 1 (Evercool 180); for course / persistence of cool feeling intensity / start of cool feeling / taste and accompanying sensations (umami, salty, bitterness, numbness, fiery feeling): vs Comparative Compound 3
Description: Sensory Evaluation was performed by comparison with Comparative Compound 1 (Evercool 180), which has a strong cool feeling among conventionally known compounds, and has a similar structure. Each of Exemplary Compound rac-14a-38 and Comparative Compound 1 was prepared as a 2 ppm aqueous solution, and the evaluation was performed.
Sensory Evaluation was performed by comparison with Comparative Compound 2, which is conventionally known, and has a similar structure. Each of Exemplary Compound rac-14a-23 and Comparative Compound 2 was prepared as a 30 ppm aqueous solution, and the evaluation was performed.
Sensory Evaluation was performed by comparison with Comparative Compound 3, which is conventionally known, and has a similar structure. Each of Exemplary Compound rac-14a-34 and Comparative Compound 3 was prepared as a 30 ppm aqueous solution, and the evaluation was performed.
Sensory Evaluation was performed by comparison with Comparative Compound 3, which is conventionally known, and has a similar structure. Each of Exemplary Compound rac-14a-40 and Comparative Compound 3 was prepared as a 30 ppm aqueous solution, and the evaluation was performed.
Sensory Evaluation was performed by comparison with Comparative Compound 3 which is conventionally known. Each of Exemplary Compound rac-14a-46 and Comparative Compound 3 was prepared as a 30 ppm aqueous solution, and the evaluation was performed.
Sensory Evaluation was performed by comparison with Comparative Compound 3 which is conventionally known. Each of Exemplary Compound rac-14a-41 and Comparative Compound 3 was prepared as a 30 ppm aqueous solution, and the evaluation was performed.
Sensory Evaluation was performed by comparison with Comparative Compound 3 which is conventionally known. Each of Exemplary Compound rac-14a-47 and Comparative Compound 3 was prepared as a 30 ppm aqueous solution, and the evaluation was performed.

[3] = 30 ppm aqueous solution, vs Comparative Compound 2

melting point [°C]	EC50 [1] [µM]	Structure (SMILES)	other results
104 to 107	0.13	CC(C)C1CCC(C)(C)CC1C(=O)NCCc1ccccn1 (racemic) [rac-14a-16, 2-isopropyl-5,5-dimethyl-N-(2-(pyridin-2-yl)ethyl)cyclohexanecarboxamide]	
121 to 122	0.24	CC(C)C1CCC(C)(C)CC1C(=O)Nc1ccc(CC#N)cc1 (racemic) [rac-14a-38, N-(4-(cyanomethyl)phenyl)-2-isopropyl-5,5-dimethylcyclohexanecarboxamide]	lapse until cool feeling exhibited after put in the mouth ([2]; 2 ppm aqueous solution): 1 minute to several minutes; persistence of cool feeling ([2]; 2 ppm aqueous solution): ≥ 30 min; cool feeling characteristic ([2]; 2 ppm aqueous solution): more natural than that of Comparative Compound 1; also recorded: only a cool feeling was felt; also recorded: sharper than that of Comparative Compound 1
141 to 145	15.5	CC(C)C1CCC(C)(C)CC1C(N)=O (stereo not shown) [14a-50, 2-isopropyl-5,5-dimethylcyclohexanecarboxamide]	
104 to 107	0.49	CCOC(=O)CNC(=O)C1CC(C)(C)CCC1C(C)C (racemic) [rac-14a-23, ethyl 2-(2-isopropyl-5,5-dimethylcyclohexanecarboxamide) acetate]	cool feeling intensity peak [2, 3]: comparable to that of Comparative Compound 2; exhibition of a cool feeling (start) [2, 3]: later than Comparative Compound 2; persistence of cool feeling [2, 3]: superior to that of Comparative Compound 2; sharp cool feeling stimulation [2, 3]: stronger than that in Comparative Compound 2
115 to 118	0.055	COc1ccc(NC(=O)C2CC(C)(C)CCC2C(C)C)cc1 (racemic) [rac-14a-34, 2-isopropyl-N-(4-methoxyphenyl)-5,5-dimethylcyclohexanecarboxamide]	course / persistence of cool feeling intensity ([2]; 30 ppm aqueous solution): increased over time; start of cool feeling ([2]; 30 ppm aqueous solution): later than Comparative Compound 3; taste and accompanying sensations (umami, salty, bitterness, numbness, fiery feeling) ([2]; 30 ppm aqueous solution): comparable to that of Comparative Compound 3; also recorded: the secretion of saliva continued
	64.7	CC(C)[C@@H]1CCC(C)(C)C[C@H]1OC(=O)[C@H](C)O (racemic) [rac-17a-2, (S)-(trans-2-isopropyl-5,5-dimethylcyclohexyl)2-hydroxypropanoate]	
		CC(C)[C@@H]1CC[C@@H](C)C[C@H]1C(=O)Nc1ccc(CC#N)cc1 [Evercool 180, reference compound]	cool feeling characteristic ([2]; 2 ppm aqueous solution): menthol-like characteristic
	32.4	CC(C)C1CCC(C)(C)CC12OCC(CO)O2 (racemic) [(1R,2S)-19a-1, (6-isopropyl-9,9-dimethyl-1,4-dioxaspiro[4.5]decan-2-yl)methanol]	
	5.24	COC(=O)c1cccc(NC(=O)C2CC(C)(C)CCC2C(C)C)c1 (racemic) [rac-14a-44, methyl 3-(2-isopropyl-5,5-dimethylcyclohexanecarboxamide) benzoate]	
93 to 98	0.027	COc1ccc(NC(=O)C2CC(C)(C)CCC2C(C)C)cc1O (racemic) [rac-14a-41, N-(3-hydroxy-4-methoxyphenyl)-2-isopropyl-5,5-dimethylcyclohexanecarboxamide]	course / persistence of cool feeling intensity ([2]; 30 ppm aqueous solution): also has persistence; start of cool feeling ([2]; 30 ppm aqueous solution): slightly earlier than Comparative Compound 3; taste and accompanying sensations (umami, salty, bitterness, numbness, fiery feeling) ([2]; 30 ppm aqueous solution): Chemical-like bitterness was somewhat felt as a first taste; also recorded: accompanied by a clear feeling than a fiery feeling
101 to 105	2.27	CCNC(=O)C1CC(C)(C)CCC1C(C)C (racemic) [rac-14a-2, N-ethyl-2-isopropyl-5,5-dimethylcyclohexanecarboxamide]	
	78.5	CC(C)[C@@H]1CCC(C)(C)C[C@H]1OC(=O)[C@H](C)O [(1R,2S)-17a-2, (S)-((1R,2S)-2-isopropyl-5,5-dimethylcyclohexyl)2-hydroxypropanoate]	
	1.5	COC(=O)c1ccc(NC(=O)C2CC(C)(C)CCC2C(C)C)c(C)c1 (racemic) [rac-14a-46, methyl 4-(2-isopropyl-5,5-dimethylcyclohexanecarboxamide)-3-methylbenzoate]	course / persistence of cool feeling intensity ([2]; 30 ppm aqueous solution): the cool feeling intensity persisted; start of cool feeling ([2]; 30 ppm aqueous solution): the start was late; taste and accompanying sensations (umami, salty, bitterness, numbness, fiery feeling) ([2]; 30 ppm aqueous solution): clear and light touch characteristic of an ester
	3.53	COC(=O)c1ccc(NC(=O)C2CC(C)(C)CCC2C(C)C)cc1 (racemic) [rac-14a-45, methyl 4-(2-isopropyl-5,5-dimethylcyclohexanecarboxamide) benzoate]	
	0.079	COc1ccc(NC(=O)C2CC(C)(C)CCC2C(C)C)c(C)c1 (racemic) [rac-14a-40, 2-isopropyl-N-(4-methoxy-2-methylphenyl)-5,5-dimethylcyclohexanecarboxamide]	taste and accompanying sensations (umami, salty, bitterness, numbness, fiery feeling) ([2]; 30 ppm aqueous solution): stronger and shaper than those of Comparative Compound 3; also recorded: Umami and a numbness feeling were exhibited simultaneously
	0.14	CC(C)[C@@H]1CCC(C)(C)C[C@H]1C(=O)Nc1ccc(CC#N)cc1 [14a-38i, (−)-trans-N-(4-(cyanomethyl)phenyl)-2-isopropyl-5,5-dimethylcyclohexanecarboxamide]	
165 to 172	0.048	CC(C)C1CCC(C)(C)CC1C(=O)Nc1ccc(CO)cc1 (racemic) [rac-14a-47, N-(4-(hydroxymethyl)phenyl)-2-isopropyl-5,5-dimethylcyclohexanecarboxamide]	course / persistence of cool feeling intensity ([2]; 30 ppm aqueous solution): also has persistence; start of cool feeling ([2]; 30 ppm aqueous solution): early start of a cool feeling; taste and accompanying sensations (umami, salty, bitterness, numbness, fiery feeling) ([2]; 30 ppm aqueous solution): stronger umami was felt than that in Comparative Compound 3; also recorded: accompanied by a fiery feeling (burning feeling)
	24.5	CC(C)[C@H]1CCC(C)(C)C[C@@H]1OC(=O)[C@H](C)O [(1S,2R)-17a-2, (S)-((1S,2R)-2-isopropyl-5,5-dimethylcyclohexyl)2-hydroxypropanoate]	
